From the supplement of paper PMC10307832

Assays:
Test in all cases: relative viability (nuclei count vs DMSO), 5 days (fraction); higher = more cells survive
Apatinib + Phenformin = compound: N#CC1(c2ccc(NC(=O)c3cccnc3NCc3ccncc3)cc2)CCCC1 [Apatinib] + N=C(N)NC(=N)NCCc1ccccc1 [Phenformin] (partner 250 µM)
Outline: (§1)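 Relative viability is defined as nuclei in treated wells over nuclei in vehicle wells. Duplicate plates were run and medians reported. Lung cancer cell lines in 1536-well plates were dosed by pin tool one day after seeding, with one drug or with a fixed anchor-drug dose plus five library-drug doses (not always all listed) in √10 steps, and nuclei were counted after 5 days.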

Metformin + Navitoclax = compound: CN(C)C(=N)NC(=N)N [Metformin] + CC1(C)CCC(c2ccc(Cl)cc2)=C(CN2CCN(c3ccc(C(=O)NS(=O)(=O)c4ccc(N[C@H](CCN5CCOCC5)CSc5ccccc5)c(S(=O)(=O)C(F)(F)F)c4)cc3)CC2)C1 [Navitoclax] (partner 0.5 µM)
Outline: as §1

Metformin = compound: CN(C)C(=N)NC(=N)N [Metformin]
Outline: (§2)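 Viability here means nuclei in treated wells divided by nuclei in vehicle wells, reported as the median across plates. Only plates with control CV below 25% and at least one doubling passed. Lung cancer cell lines in 1536-well plates were exposed to five √10-spaced library-drug doses for 5 days and counted from 4× Hoechst images in MetaXpress.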

Apatinib = compound: N#CC1(c2ccc(NC(=O)c3cccnc3NCc3ccncc3)cc2)CCCC1 [Apatinib]
Outline: as §2

Cell Line | relative viability (Apatinib + Phenformin; first compound 0.08 µM) | relative viability (Apatinib + Phenformin; first compound 0.253 µM) | relative viability (Apatinib + Phenformin; first compound 0.8 µM) | relative viability (Apatinib + Phenformin; first compound 2.53 µM) | relative viability (Apatinib + Phenformin; first compound 8 µM) | relative viability (Metformin + Navitoclax; first compound 10 µM) | relative viability (Metformin + Navitoclax; first compound 31.62 µM) | relative viability (Metformin + Navitoclax; first compound 100 µM) | relative viability (Metformin + Navitoclax; first compound 316.23 µM) | relative viability (Metformin + Navitoclax; first compound 1000 µM) | relative viability (Metformin; 10 µM) | relative viability (Metformin; 31.62 µM) | relative viability (Metformin; 100 µM) | relative viability (Metformin; 316.23 µM) | relative viability (Metformin; 1000 µM) | relative viability (Apatinib; 0.08 µM) | relative viability (Apatinib; 0.253 µM) | relative viability (Apatinib; 0.8 µM) | relative viability (Apatinib; 2.53 µM) | relative viability (Apatinib; 8 µM)
NCI-H1355 | 0.438 | 0.443 | 0.447 | 0.406 | 0.385 | 0.936 | 1.02 | 0.955 | 0.719 | 0.903 | 0.838 | 0.953 | 0.963 | 0.992 | 1.05 | 0.993 | 0.962 | 0.956 | 0.9 | 0.885
A-427 | 0.393 | 0.387 | 0.254 | 0.3 | 0.234 | 1.01 | 1 | 0.969 | 0.978 | 0.887 | 1.05 | 1.02 | 0.985 | 1.01 | 1.05 | 1.09 | 0.967 | 0.965 | 0.926 | 0.906
NCI-H1793 | 0.352 | 0.318 | 0.327 | 0.224 | 0.189 | 0.335 | 0.395 | 0.482 | 0.442 | 0.489 | 0.943 | 1.01 | 0.993 | 0.977 | 1.25 | 1.02 | 1.01 | 0.857 | 0.772 | 0.749
NCI-H596 | 0.801 | 0.724 | 0.723 | 0.705 | 0.711 | 0.985 | 1.15 | 1.1 | 0.908 | 1 | 1.17 | 1.14 | 1.02 | 1.06 | 1.09 | 0.939 | 1.03 | 0.94 | 0.911 | 0.882
NCI-H2228 | 0.423 | 0.284 | 0.223 | 0.29 | 0.301 | 1.02 | 1.04 |  | 0.815 | 1.05 | 0.913 | 1.08 | 0.803 | 0.907 | 1.22 | 1.13 | 1.08 | 0.993 | 0.867 | 0.846
201T | 0.481 | 0.448 | 0.413 | 0.33 | 0.405 |  | 1.26 | 1.17 | 1.16 | 1.17 |  | 1.08 | 1.06 | 0.934 | 1.01 | 0.983 | 0.961 | 0.982 | 0.871 | 0.894
HARA | 0.424 | 0.455 | 0.391 | 0.28 | 0.298 | 1.13 | 1.1 | 1.2 | 1.02 | 1.16 | 1.12 | 1.26 | 1.13 | 1.06 | 1.13 | 1.33 | 0.93 | 1 | 0.742 | 1.04
NCI-H3122 | 0.351 | 0.361 | 0.319 | 0.271 | 0.298 | 0.937 | 0.955 | 0.969 | 0.933 | 0.89 | 0.817 | 0.939 | 0.891 | 0.819 | 0.872 | 1 | 0.988 | 0.98 | 0.969 | 1.03
NCI-H1651 | 0.319 | 0.322 | 0.309 | 0.288 | 0.316 | 1.14 | 1.38 | 1.27 | 1.21 | 1.46 | 1.08 | 1.17 | 1.12 | 1.11 | 1.11 | 0.988 | 0.984 | 0.986 | 0.939 | 0.871
SK-MES-1 | 0.699 | 0.615 | 0.616 | 0.574 | 0.451 | 0.879 | 1.08 | 1.07 | 0.973 | 1.14 | 0.9 | 0.875 | 0.952 | 0.826 | 0.884 | 1.02 | 1.06 | 0.978 | 0.933 | 0.884
NCI-H2085 | 0.707 | 0.715 | 0.752 | 0.65 | 0.656 | 1.08 | 1.12 | 1.05 | 1.07 | 1.11 | 0.977 | 0.939 | 0.956 | 0.977 | 0.991 | 0.986 | 0.979 | 0.953 | 0.92 | 0.971
ChaGo-K-1 | 0.473 | 0.528 | 0.425 | 0.424 | 0.428 | 1 | 1.42 | 0.95 | 0.93 | 1.24 | 0.951 | 1.11 | 1.05 | 0.896 | 0.987 | 1.01 | 1.09 | 0.932 | 0.938 | 0.989
SK-LU-1 | 0.607 | 0.594 | 0.471 | 0.413 | 0.454 | 0.891 | 0.777 | 0.976 | 0.926 | 0.953 | 0.997 | 0.976 | 0.967 | 0.901 | 1.01 | 1.09 | 1.08 | 0.992 | 0.949 | 0.931
COR-L23 | 0.5 | 0.421 | 0.427 | 0.395 | 0.438 | 0.984 | 0.839 | 0.909 | 0.932 | 1.04 | 0.979 | 1.06 | 0.974 | 0.977 | 1 | 1.04 | 0.942 | 1.05 | 0.914 | 0.865
COR-L 105 | 0.523 | 0.598 | 0.426 | 0.45 | 0.337 | 0.812 | 0.923 | 0.843 | 0.654 | 0.571 | 1.02 | 1.04 | 1.16 | 0.994 | 0.964 | 0.976 | 1.04 | 0.85 | 0.814 | 0.855
HCC-44 | 0.153 | 0.17 | 0.309 | 0.22 | 0.203 | 0.99 | 1.08 | 0.957 | 0.888 | 1.06 | 0.938 | 0.997 | 1.02 | 0.909 | 0.956 | 0.959 | 0.941 | 0.95 | 0.913 | 0.922
